Values quoted from earlier work as cited in patent US20050042196A1, “Antimicrobial phenol containing cyanoacrylate compositions” (priority 2003, published 2005).

Settings: aqueous

## [O-][Cl+3]([O-])([O-])O [perchloric acid]
  pKa: −5
